Results as given in patent US20160324174A1, “EDIBLE COATING FOR PRESERVING PIECES OF FRUIT, PRODUCTION METHOD AND APPLICATION THEREOF” (PRODUCTION AND INNOVATION ON EDIBLE COATINGS, S.L., priority 2014, published 2016).

Tested on: pieces of apple (Golden delicious)
Assay: Sensory evaluation of coated pieces of apple during 15 days storage at 4° C.
Settings: for Hydration: scale 1 to 10, 10 = complete hydration of the product surface; for Texture: scale 1 to 10, 10 = firm crisp texture; for Color: sensory scale 1 to 10, 10 = total absence of browning
Protocol: Apples of the Golden delicious variety were used. They were washed on the surface and disinfected by immersion in a sodium hypochlorite (80 ppm) solution. After disinfection, the apples were cored and cut manually into […] (quarters), which were immediately coated. […] In any of the cases, the components were dissolved in water, by constant stirring, until completely dissolved, the temperature of both the water and of the solution being held at 6° C. until their use as coating. The pieces of apple were immersed for 1 minute in each of the solutions. In the case of the control sample, the pieces of apple were immersed in cold water for the same period of time. After this, the samples were drained for 1 minute in order to remove any excess coating that might remain on the surface of the fruit. Finally, the fruit was manually packaged in plastic tubs (PET), without the use of a modified atmosphere, and stored at 4° C. for 15 days. […] The scale of evaluation was from 1 to 10, 10 being the highest mark awarded to the parameter evaluated, namely, a product with the same quality as the freshly cut fruit, and 1 being a very bad quality product (rejectable).

[1] = apple pieces, day 1 in storage at 4° C.
[2] = apple pieces, day 8 in storage at 4° C.
[3] = apple pieces, day 15 in storage at 4° C.

In the case of “calcium ascorbate [Calcium ascorbate (6% p/p)]”, the “appearance of first symptoms of dehydration” value (apple pieces in storage at 4° C.) is reported as “from the first week of storage”, the “maintenance of the original color of the apple” value (apple pieces, 15 days storage at 4° C.) is reported as “throughout almost all of the period of storage” and the General appearance [1] is reported as “Good”. For the same substance, the Hydration [1] was 10, the Texture [1] was 10 and the Color [1] was 10. For the same substance, the General appearance [2] was “Dehydrated”, the Hydration [2] was 5 and the Texture [2] was 8. The Color [2] was 9, the General appearance [3] was “Very dehydrated,” and the Hydration [3] was 4. For the same substance, the Texture [3] was 7 and the Color [3] was 8.
